In US20120316078A1, “METHODS AND MATERIALS FOR PRODUCING POLYPEPTIDES IN VITRO” (priority 2011, published 2012):

biological target: GFP (Aequorea victoria, UniProt P42212); conditions: array of randomly generated peptides; GFP binding assay
Text: Peptide aptamers also can be selected using a peptide array containing randomly generated peptides (e.g., 10,000 randomly generated peptides) that are 10 to 35 amino acids (e.g., 15 to 25 or 20 amino acids) in length. The peptide array can be screened using a binding assay with the protein target (e.g., GFP or thioredoxin). For example, when a fluorescent protein such as GFP is the target, GFP-binding peptides can be directly identified through a fluorescent scanner after a GFP binding assay.

Sequence	binding to GFP on peptide array (strong fluorescence spots)
CSGPYGTHFMYKSGGWRAIY [SEQ ID NO:4]	bind specifically to the GFP
CSGWNHVIYEGTRYNWFRDS [SEQ ID NO:3]	bind specifically to the GFP
CSGFRAMWLYRNWESQVEAT [SEQ ID NO:2]	bind specifically to the GFP
